The text below walks through data of patent US10945978B2, “Treatment and diagnosis of melanoma” (The Rockefeller University, priority 2012, dated 2021).

The subject of experiment [1] is RCC human renal cancer cells, PANC1 human pancreatic cancer cells, H460 human lung cancer cells. Description: Matrigel invasion of renal, pancreatic and lung cancer cells treated with GW3965. Type of experiment: cell-based. Conditions: 1 μM for 72 hours prior to the assay. The procedure:
Various cell lines (5×10^4 RCC human renal cancer cells, 5×10^4 PANC1 human pancreatic cancer cells, and 5×10^4 H460 human lung cancer cells) were treated with DMSO or GW3965 at 1 μM for 56 hours. The cells were serum starved for 16 hours in 0.2% FBS media in the presence of DMSO or GW3965. Following serum starvation, the cells were subjected to the trans-well invasion assay using a matrigel invasion chamber system (354480, BD Biosciences). Invasion chambers were pre-equilibrated prior to the assay by adding 0.5 mL of starvation media to the top and bottom wells. Meanwhile, cancer cells were trypsinized and viable cells were counted using trypan blue. Cancer cells were then resuspended at a concentration of 1×10^5 cells/1 mL starvation media, and 0.5 mL of cell suspension, containing 5×10^4 cells, was seeded into each trans-well. The invasion assay was allowed to proceed for 24 hours at 37° C. […] Following fixation, the inserts were washed in PBS and then cut out and mounted onto slides using VectaShield mounting medium containing DAPI nuclear stain (H-1000, Vector Laboratories). The basal side of each insert was imaged using an inverted fluorescence microscope (Zeiss Axiovert 40 CFL) at 5× magnification, and the number of DAPI-positive cells was quantified using ImageJ.

The subject of experiment [2] is Tyr::CreER; B-RafV600E/+; Ptenlox/+ and Tyr::CreER; B-RafV600E/+; Ptenlox/lox mice. Description: Genetically-initiated model of melanoma progression. It counts as in vivo, mouse. The procedure: The Tyr::CreER; B-Raf^V600E/+; Pten^lox/+/Tyr::CreER; B—Raf^V600E/+; Pten^lox/lox conditional model of melanoma progression was previously established and characterized by Dankort et al. (2009). Briefly, melanoma in these mice was induced at 6 weeks of age by intraperitoneally injecting 4-HT (H6278, 70% isomer, Sigma-Aldrich, St Louis, Mo.) at 25 mg/kg administered in peanut oil on three consecutive days. The 4-HT stock solution was prepared by dissolving it in 100% EtOH at 50 mg/mL by heating at 45° C. for 5 min and mixing. Once dissolved, the stock 4-HT solution was then diluted by 10-fold in peanut oil, yielding a 5 mg/mL 4-HT working solution that was then injected into mice. After the first 4-HT injection, mice were blindedly assigned to receive either a control diet or a diet supplemented with GW3965 (100 mg/kg). Mice were examined three times a week for the presence and progression of melanoma lesions. At day 35, dorsal skin samples were harvested from control-treated and GW3965-treated mice, fixed in 4% PFA and photographed at 10×. The percentage of pigmented melanoma lesion area out of the total skin area was quantified using ImageJ. For survival analyses, mice were monitored daily for melanoma progression and euthanized according to a standard body condition score, taking into account initial signs of moribund state and discomfort associated with the progression of melanoma burden. Post-mortem, the lungs, brains, and salivary glands were harvested and examined for the presence of macroscopic melanoma lesions.

Another experiment deals with ApoE. Nature of the experiment: ApoE expression by qRT-PCR in human melanoma cells. Type of experiment: cell-based. Conditions: parental MeWo cells; GW3965 48 hours. The procedure:
Total RNA was extracted from various cell lines using the miRvana kit (AM1560, Applied Biosystems, Austin, Tex.). The expression levels of mature miRNAs were quantified using the Taqman miRNA expression assay (4427975-0002228, Applied Biosystems). RNU44 was used as an endogenous control for normalization. For mRNA expression analyses, 600 ng of total RNA was reverse transcribed using the cDNA First-Strand Synthesis Kit (18080-051, Invitrogen), and roughly 200 ng of the resulting cDNA was then mixed with SYBR green PCR Master Mix (4309155, Applied Biosystems) and the appropriate primers. Each reaction was performed in quadruplicate, and mRNA expression was quantified by performing real-time PCR amplification using an ABI Prism 7900HT Real-Time PCR System (Applied Biosystems). GAPDH was used as an endogenous control for normalization. The following primers were used: […]
RNA was extracted from whole cell lysates using the Total RNA Purification Kit (17200, Norgen, Thorold, Canada). 600 ng of total RNA was then reverse transcribed into cDNA using the cDNA First-Strand Synthesis Kit (18080-051, Invitrogen), and quantitative real-time PCR amplification was performed as previously described (Pencheva et al., 2012) using an ABI Prism 7900HT Real-Time PCR System (Applied Biosystems, Austin, Tex.). Each PCR reaction was carried out in quadruplicates. Gene expression was normalized to GAPDH, which was used as an endogenous control.
For every sample, 600 ng of RNA was reverse transcribed into cDNA using the cDNA First-Strand Synthesis kit (Invitrogen). Approximately 200 ng of cDNA was mixed with SYBR® green PCR Master Mix and the corresponding forward and reverse primers specific for detection of human ApoE. Each reaction was carried out in quadruplicates, and ApoE mRNA expression levels were measured by quantitative real-time PCR amplification using an ABI Prism 7900HT Real-Time PCR System (Applied Biosystems). The relative ApoE expression was determined using the ΔΔCt method. GAPDH was used as an endogenous control for normalization purposes.
A general note: In qPCR the cycle at which signal appears reflects the starting amount.

Experiment [3] has as its system B-Raf^V600E/+; Pten^−/−; CDKN2A^−/− primary mouse melanoma cells. Description: B-RafV600E/+; Pten−/−; CDKN2A−/− melanoma cells in syngeneic C57BL/6 mice. Type of experiment: in vivo. Conditions: GW3965 diet 100 mg/kg. The procedure: Melanoma cells used for in vivo metastasis assays were transduced with a stably expressed retroviral construct encoding a luciferase reporter gene (Ponomarev et al., 2004), allowing us to monitor the in vivo progression of melanoma cells by bioluminescence imaging. The following numbers of melanoma cells, resuspended in 100 μL of PBS, were injected intravenously via the tail-vein: 4×10^4 MeWo cells, 2.5×10^5 HT-144 cells, 2×10^5 SK-Mel-334.2 cells, 5×10^4B16F10 cells, and 1×10^5 YUMM cells. The MeWo, HT-144, and SK-Mel-334.2 cells were injected into 6-8 week-old sex-matched NOD scid mice, while the B16F10 and YUMM cells were injected into 6-8 week-old sex-matched C57BL/6 mice. […] To assess the effect of GW3965 treatment on brain metastasis, 1×10^5 MeWo brain-metastatic derivatives were injected intracardially into athymic nude mice. Immediately following injection, mice were randomly assigned to a control diet or GW3965-supplemented diet (100 mg/kg). To determine whether oral delivery of GW3965 can inhibit the progression of incipient metastasis, NOD Scid mice were intravenously injected with 4×10^4 MeWo cells and the cells were allowed to colonize the lungs for 42 days, after which mice were blindedly assigned to a control diet or a GW3965-supplemented diet (100 mg/kg) treatment.

For experiment [4], the system named is B16F10, MeWo and SK-Mel-334.2 cells. Description: Overall survival of mice bearing subcutaneous melanoma tumors. Type of experiment: in vivo, mouse. The conditions noted are these: chow supplemented with GW3965 100 mg/kg after tumor establishment.

Counter-ions that a name gives are not always drawn.

For `O=C(O)Cc1cccc(OCCCN(Cc2cccc(C(F)(F)F)c2Cl)CC(c2ccccc2)c2ccccc2)c1` [GW3965 2, 3-[3-[N-(2-Chloro-3-trifluoromethylbenzyl)-(2,2-diphenylethyl)amino]propyloxy] phenylacetic acid hydrochloride], the tumor cell invasion result in experiment [1] is “inhibition”. Further, in experiment [2] (Ptenlox/lox mice, GW3965 100 mg/kg), the “number of lymphatic metastases detected post-mortem” value was “decrease”. The tumor progression entry in experiment [2] (oral, GW3965 diet 100 mg/kg after melanoma initiation) is “attenuated”. Moreover, the overall survival times result in experiment [2] (oral, GW3965 diet 100 mg/kg, Ptenlox/+ and Ptenlox/lox) is recorded as “significantly extended”. Also, the “expression of ApoE” value with ApoE is recorded as “increased”. In addition, in experiment [3], the overall survival result was “extended”; the “tumor growth and lung metastasis” value is reported as “robustly inhibited”. For the same compound, in experiment [4], the overall survival time entry was “substantially prolonged”.
